Laboratory results: patent publication US20050061314A1, “Metered dose inhaler” (Vactura Limited, priority 2001, published 2005)

Legend:
cataleptic effect of THC = details: mice; cited from earlier work
effect of THC = details: cited from earlier work
mice = details: cited from earlier work
[1] = Andersen Cascade Impactor aerosol characterisation of pMDI solution formulations; format: physicochemical
Experimental: The FPD, which provides a direct measurement of the aerosol particles considered suitable for deposition and retention in the respiratory tract, is calculated as the mass of the particles deposited from stage 3 to the filter (particles with an aerodynamic diameter less than 4.7 μm) in an Andersen Cascade Impactor.
The aerodynamic particle size distribution of an aerosol formulation is characterised using a Multistage Cascade Impactor according to the procedure described in European Pharmacopoeia 2nd edition, 1995, part V.5.9.1, pages 15-17. Generally an Andersen Cascade Impactor (ACI) is utilised. Deposition of the drug on each ACI plate is determined by high performance liquid chromatography (HPLC). Mean metered dose is calculated from the cumulative deposition in the actuator and ACI stages; mean delivered dose is calculated from the cumulative deposition in the ACI. Mean respirable dose (fine particle dose, i.e. FPD) which provides a direct measurement of the aerosol particles is considered suitable for deposition and retention in the respiratory tract, is obtained from the deposition on Stage 3 (S3) to filter (AF) corresponding to particles with an aerodynamic diameter ≦4.7 μm. Smaller particles, with an aerodynamic diameter ≦1.1 μm correspond to the fraction obtained from the deposition on Stage 6 to filter.
The FPD can also be expressed as a percentage of the ex-valve dose or recovered dose (i.e. Fine Particle Fraction: FPF≦4.7 μm or FPF≦1.1 μm). Shot weights are measured by weighing each canister before and after the actuation.
The experiments of example 2 consisted of discharging Δ^9-THC (THC)/ethanol/glycerol/HFA 134a and Δ^9-THC hemisuccinate (THC-HS)/ethanol/glycerol/HFA 134a formulations through actuator inserts housed in a modified Bespak actuator (630 series) into an Andersen Cascade Impactor operated at 28.3 L min^−1. Two product strengths, 100 μg/dose and 1000 μg/dose, were used in combination with 5% or 10% w/w ethanol, and 0.1% or 0.3% glycerol. Experiments were conducted using 0.14 and 0.16 mm diameter, 0.60 mm long, laser drilled actuator orifices in accordance with the invention in its preferred aspects and a third party supplied actuator with an orifice diameter of 0.22 mm. The quantities of drug deposited on the actuator, the throat and the stages of the impactor were measured. The delivered dose, the mass median aerodynamic diameter (MMAD), the geometric standard deviation (GSD), the fine particle dose ≦4.7 μm (FPD≦4.7) and the fine particle dose ≦1.1 μm (FPD≦1.1) were calculated from the results of these experiments and are set out in tables 3 and 4. The FPDs were also expressed as a % fraction of the ex-valve dose (FPF≦4.7, FPF≦1.1). Shot weight was measured by weighing the pMDI before and after discharge. These latter parameters are also set out in tables 3 and 4 along with other results of these experiments.

[2] = mouse brain; cited from earlier work
GABA = details: cited from earlier work
asthmatic patients = details: pMDI with CFC propellant and ethanol; cited from earlier work
[3] = 100 μg, 5% Ethanol, 0.1% Glycerol, HFA134a, 50 μl, Actuator 0.14 mm
[4] = 100 μg/50 μl/134a, 5% Et, 0.1% Gly, 0.14 mm Aluminium insert (4b)
[5] = 100 μg/50 μl/134a, 5% Et, 0.1% Gly, 0.16 mm Al insert (11A)
[6] = 100 μg/50 μl/134a, 5% Et, 0.1% Gly, 0.22 mm Bespak Actuator
[7] = 100 μg/50 μl/134a, 10% Et, 0.3% Gly, 0.14 mm Aluminium insert (4b)
[8] = 1000 μg, 5% Ethanol, 0.1% Glycerol, HFA134a, 50 μl, Actuator 0.14 mm

## CCCCCc1cc(O)c2c(c1)OC(C)(C)c1ccc(C)cc1-2 [CBN, cannabinol]
Cataleptic effect of THC
  effect on cataleptic effect of THC: antagonises cataleptic effect of THC
Effect of THC
  effect on the effect of THC in man: potentates the effect of THC

## CCCCCc1cc(O)c2c(c1)OC(C)(CCC=C(C)C)C=C2 (stereo not drawn) [CBC, cannabichromene]
mice
  effect on LD50 of THC: does lower LD50 of THC

## CCCCCc1cc(OC(=O)CCC(=O)O)c2c(c1)OC(C)(C)[C@@H]1CCC(C)=C[C@@H]21 [THC-HS, Δ^9-THC hemisuccinate]
[1]; [3]
  Delivered: 97.30 µg
  FPD<1.1 μm: 37.56 µg
  FPD<3.3 μm: 89.66 µg
  FPD<4.7 μm: 91.94 µg
  FPF<1.1 μm: 36.86%
  FPF<3.3 μm: 87.99%
  FPF<4.7: 90.23%
  GSD: 1.7
  MMAD: 1.3 μm
  Recovered: 101.90 µg
  Shot Weight ± SD: 64.7 ± 0.5 mg
[1]; [4]
  Actuator: 4.57 µg
  Delivered: 97.30 µg
  Dose < 1.1 μm: 37.56 µg
  FPD<3.3 μm: 89.66 µg
  FPD<4.7 μm: 91.94 µg
  FPF<1.1 μm: 36.86%
  FPF<3.3 μm: 87.99%
  FPF<4.7: 90.23%
  GSD: 1.7
  MMAD: 1.3 μm
  Recovered: 101.90 µg
  Shot Weight ± SD: 64.7 ± 0.5 mg
  Throat: 3.51 µg
[1]; [5]
  Actuator: 4.88 µg
  Delivered: 93.40 µg
  Dose < 1.1 μm: 28.19 µg
  FPD<3.3 μm: 80.07 µg
  FPD<4.7 μm: 83.56 µg
  FPF<1.1 μm: 28.59%
  FPF<3.3 μm: 81.25%
  FPF<4.7: 84.79%
  GSD: 1.8
  MMAD: 1.4 μm
  Recovered: 98.55 µg
  Shot Weight ± SD: 62.0 ± 0.6 mg
  Throat: 7.52 µg
[1]; [6]
  Actuator: 7.71 µg
  Delivered: 98.00 µg
  Dose < 1.1 μm: 24.30 µg
  FPD<3.3 μm: 77.43 µg
  FPD<4.7 μm: 82.02 µg
  FPF<1.1 μm: 22.99%
  FPF<3.3 μm: 73.25%
  FPF<4.7: 77.60%
  GSD: 1.7
  MMAD: 1.5 μm
  Recovered: 105.70 µg
  Shot Weight ± SD: 62.6 ± 0.4 mg
  Throat: 13.82 µg
[1]; [7]
  Actuator: 4.35 µg
  Delivered: 79.50 µg
  Dose < 1.1 μm: 14.21 µg
  FPD<3.3 μm: 65.50 µg
  FPD<4.7 μm: 70.93 µg
  FPF<1.1 μm: 16.96%
  FPF<3.3 μm: 78.16%
  FPF<4.7: 84.64%
  GSD: 1.7
  MMAD: 1.7 μm
  Recovered: 83.80 µg
  Shot Weight ± SD: 60.7 ± 0.6 mg
  Throat: 5.93 µg
[1]; [8]
  Delivered: 834.3 µg
  FPD<1.1 μm: 138.04 µg
  FPD<3.3 μm: 676.16 µg
  FPD<4.7 μm: 771.92 µg
  FPF<1.1 μm: 15.83%
  FPF<3.3 μm: 77.56%
  FPF<4.7: 88.54%
  GSD: 1.7
  MMAD: 1.9 μm
  Recovered: 871.8 µg
  Shot Weight ± SD: 64.7 ± 0.6 mg

## C=C(C)[C@@H]1CCC(C)=C[C@H]1c1c(O)cc(CCCCC)cc1O [CBD, cannabidiol]
[2]
  effect on THC levels in the brain: increases THC levels

## CCCCCc1cc(O)c(C/C=C(\C)CCC=C(C)C)c(O)c1 [CBG, cannabigerol]
GABA
  GABA inhibitor potency relative to THC: more potent GABA inhibitor than THC

## CCCCCc1cc(O)c2c(c1)OC(C)(C)[C@@H]1CCC(C)=C[C@@H]21 [THC, Δ^9-tetrahydrocannabinol, reference compound]
Asthmatic patients
  bronchodilatory effect: bronchodilatory effect
[1]; [3]
  Delivered: 108.2 µg
  FPD<1.1 μm: 42.01 µg
  FPD<3.3 μm: 98.02 µg
  FPD<4.7 μm: 101.71 µg
  FPF<1.1 μm: 36.63%
  FPF<3.3 μm: 85.46%
  FPF<4.7: 88.67%
  GSD: 1.8
  MMAD: 1.3 μm
  Recovered: 114.7 µg
  Shot Weight ± SD: 62.4 ± 0.8 mg
[1]; [8]
  Delivered: 1044.5 µg
  FPD<1.1 μm: 129.7 µg
  FPD<3.3 μm: 735.5 µg
  FPD<4.7 μm: 907.14 µg
  FPF<1.1 μm: 11.69%
  FPF<3.3 μm: 66.32%
  FPF<4.7: 81.79%
  GSD: 1.7
  MMAD: 2.3 μm
  Recovered: 1109.1 µg
  Shot Weight ± SD: 63.8 ± 0.4 mg
